Source: PMC7959842, “Deregulation of Factor H by Factor H-Related Protein 1 Depends on Sialylation of Host Surfaces” (Frontiers in Immunology, 2021)

Columns and labels:
Format in all cases: binding
FH18-20 [1] = molecular target: T1, FH18-20 (Homo sapiens, UniProt P08603); assay: intrinsic tryptophan fluorescence (nanoDSF), titration; also STD NMR; conditions: 50 mM HEPES pH 7.4, 150 mM NaCl, 3 mM EDTA; 20 and 37 °C; in solution
T1 construct: gene CFH; C-terminal fragment CCP18-20, monomeric, recombinant from Pichia pastoris
T1 sequence (P08603 1046-1231 limits assumed): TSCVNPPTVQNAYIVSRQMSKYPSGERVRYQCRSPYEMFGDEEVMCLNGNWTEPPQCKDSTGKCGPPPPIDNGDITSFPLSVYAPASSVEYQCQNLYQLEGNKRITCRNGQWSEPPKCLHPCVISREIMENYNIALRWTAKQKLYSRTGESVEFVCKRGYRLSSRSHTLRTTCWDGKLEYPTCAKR

FH18-20 [2] = molecular target: T1, FH18-20; assay: SPR, immobilised glycan, concentration series; conditions: labelled compound (biotin-coupled on streptavidin chip); PBS, 0.005% Tween20, 25 °C; rough estimate, saturation not reached; read-out: affinity
FH19-20 = molecular target: T2, FH19-20 (Homo sapiens, UniProt P08603); assay: SPR, immobilised glycan, concentration series; conditions: labelled compound (biotin-coupled on streptavidin chip); PBS, 0.005% Tween20, 25 °C; rough estimate, saturation not reached; read-out: affinity
T2 construct: gene CFH; C-terminal fragment CCP19-20, recombinant from Pichia pastoris
T2 sequence (P08603 1107-1231 limits assumed): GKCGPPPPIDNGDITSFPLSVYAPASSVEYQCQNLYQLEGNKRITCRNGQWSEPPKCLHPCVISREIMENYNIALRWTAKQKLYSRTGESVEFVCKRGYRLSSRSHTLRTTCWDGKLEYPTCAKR

CC(=O)N[C@H]1[C@H]([C@H](O)[C@H](O)CO)O[C@@](O[C@H]2[C@@H](O)[C@@H](CO)O[C@@H](O[C@H]3[C@H](O)[C@@H](O)C(O)O[C@@H]3CO)[C@@H]2O)(C(=O)O)C[C@@H]1O (stereo partly drawn) [3’-sialyllactose]
affinity (FH18-20 [1]): monovalent interactions in solution were generally weaker; with estimated affinities in the millimolar range

biotinylated 3´-sialyl-N-acetyllactosaminide
Kd (FH18-20 [2]): > 100 µM
Kd (FH19-20): > 100 µM
